Measurements as given in patent US12448372B2, “Class of triaromatic compounds targeting bifunctional phosphorylation site of STAT3 and applications thereof” (SHANGHAI YUYAO BIOTECH LTD., priority 2019, dated 2025).
Where two headings read alike, the source gives them in different places.

Tests used:
STAT3 protein = STAT3 protein (Homo sapiens, UniProt P40763); assay: Binding activity to STAT3 protein by microscale thermophoresis (MST); conditions: purified STAT3 recombinant protein
From the text: (1) Determination of Binding Activities of Compounds to STAT3 Protein by Microscale Thermophoresis (MST) Method
The microscale thermophoresis (MST) technique is a simple, rapid, and accurate method for quantifying biomolecular interactions. It can measure the movement of molecules in a microscopic temperature gradient field, as well as detect changes of molecular hydration shell, charge and size. When the Nanotemper microscale thermophoresis instrument locally heated by a infrared laser, molecules will move in a directional manner, then the molecular distribution ratio in the temperature gradient field are analyzed by a fluorescence to detect whether a small molecule compound binds to a target protein. The experimental operation is as follows: firstly, compounds to be tested are diluted in a gradient using MST test buffer, total 16 concentrations being configured; subsequently, the purified STAT3 recombinant protein is labeled using the HIS tag labeling kit, and the final concentration of the labeled protein is 100-200 nM; the labeled STAT3 proteins are well mixed with the diluted compounds and incubated and protected from light for 30 minutes; finally the samples were loaded by capillary tube and detected on the instrument. The binding constants (K^D) of small molecules to STAT3 protein were analyzed by Mo. analysis software.

Capan-2 = assay: Cell proliferation by MTS method, Capan-2; type: cell-based; conditions: for improvement of anti-tumor proliferative activity over OPB51602 and IACS-010759: pancreatic cancer cells, FIG. 5B
From the text: (§1) (2) Detection of Cell Proliferation by MTS Method
(§2) The MTS assay is a method for indirectly determining the number of living cells via colourimetric method. MTS is a newly synthesised tetrazole compound that reflects cell viability, which can be reduced by succinate dehydrogenase in the mitochondria of living cells to an orange-coloured formazan with an absorbance of the reduced product measured at 490 nm being in proportion to the number of living cells, thus reflecting the cell viability. This assay can be used to evaluate the effect of the compound on the proliferation of pancreatic cancer cells, thereby determining the inhibitory effect of the compound on the proliferation of pancreatic cancer cells and to calculate the IC^50. Each cells were inoculated uniformly into a 96-well plate at a density of 1-20×10^3 cells/well, 100 μL per well, and placed in a constant temperature incubator until the cells adhered to the wall. The control group was added with the corresponding medium and the experimental groups were given different concentrations of the compound prepared by the examples of the present invention, and the cells were taken out 24-96 h after administration for observing the cell state under a microscope. Under light-proof conditions, MTS was added and well mixed, the mixture was placed in a constant temperature incubator at 37° C., and the light absorption value were measured using an enzyme marker at 490 nm and the experiment was repeated for three times, IC50 was calculated with GraphPad5 Prism software.

MKN45 = assay: Cell proliferation by MTS method, MKN45; type: cell-based; conditions: Table 1, MKN45, read-out: Tumour cell proliferative activity/IC50(nM) gastric Cancer MKN45
From the text: as §1, §2

Huh7 = assay: Cell proliferation by MTS method, Huh7; type: cell-based; conditions: Table 1, Huh7, read-out: Tumour cell proliferative activity/IC50(nM) Liver Cancer Huh7
From the text: as §1, §2

HCC827 = assay: Cell proliferation by MTS method, HCC827; type: cell-based; conditions: Table 1, HCC827, read-out: Tumour cell proliferative activity/IC50(nM) Lung Cancer HCC827
From the text: as §1, §2

[1] = Homo sapiens, Table 1, Capan-2, read-out: Tumour cell proliferative activity/IC50(nM) Pancreatic Cancer Capan-2
[2] = Homo sapiens, Capan-2, FIG. 5B, read-out: IC50, inhibition of proliferation of pancreatic cancer cells

Sequence of STAT3 protein (P40763 whole entry): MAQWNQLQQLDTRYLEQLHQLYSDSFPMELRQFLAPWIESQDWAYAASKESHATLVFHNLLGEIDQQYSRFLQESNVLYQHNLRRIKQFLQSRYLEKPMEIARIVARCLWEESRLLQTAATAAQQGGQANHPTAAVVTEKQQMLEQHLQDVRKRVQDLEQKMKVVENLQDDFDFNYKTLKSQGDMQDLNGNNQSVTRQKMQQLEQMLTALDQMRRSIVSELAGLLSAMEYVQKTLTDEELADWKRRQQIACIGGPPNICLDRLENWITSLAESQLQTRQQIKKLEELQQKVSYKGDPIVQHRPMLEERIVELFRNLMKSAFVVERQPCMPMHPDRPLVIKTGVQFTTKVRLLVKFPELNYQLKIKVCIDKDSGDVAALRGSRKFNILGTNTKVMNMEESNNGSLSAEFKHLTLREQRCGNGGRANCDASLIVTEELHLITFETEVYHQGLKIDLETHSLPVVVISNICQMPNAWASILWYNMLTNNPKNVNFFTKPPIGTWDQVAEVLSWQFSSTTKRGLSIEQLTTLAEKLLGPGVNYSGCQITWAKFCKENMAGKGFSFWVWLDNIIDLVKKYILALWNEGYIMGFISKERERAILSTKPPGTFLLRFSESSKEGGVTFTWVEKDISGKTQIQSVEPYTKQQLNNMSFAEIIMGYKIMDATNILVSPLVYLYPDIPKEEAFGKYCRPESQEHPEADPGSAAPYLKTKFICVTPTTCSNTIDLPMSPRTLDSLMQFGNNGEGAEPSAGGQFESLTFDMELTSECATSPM

Work on `Cn1c(C(=O)N2CCN(Cc3ccc(OCC(F)(F)F)cc3)CC2)cc2ccc(Oc3cnc(-c4nc(-c5ccccc5)no4)cn3)cc21` [Example 1, 1-methyl-(6-((5-(3-phenyl-1,2,4-oxadiazol-5-yl)pyrazin-2-yl)oxy)-1H-indol-2-yl)(4-(4-(2,2,2-trifluoroethoxy)benzyl)piperazin-1-yl)methanone] yielded a Kd (STAT3 protein) of under 0.01 µM, an IC50 (Capan-2; Table 1, Capan-2, read-out: Tumour cell proliferative activity/IC50(nM) Pancreatic Cancer Capan-2) of under 10 nM and an IC50 (MKN45) of under 10 nM. The IC50 (Huh7) was under 10 nM and the IC50 (HCC827) was under 10 nM.

`Cn1c(C(=O)N2CCN(Cc3ccc(OCC(F)(F)F)cc3)CC2)cc2ccc(Oc3cnc(-c4nc(-c5ccc(F)cc5)no4)cn3)cc21` [Example 2, (6-((5-(3-(4-fluorophenyl)-1,2,4-oxadiazol-5-yl)pyrazin-2-yl)oxy)-1-methyl-1H-indol-2-yl)(4-(4-(2,2,2-trifluoroethoxy)benzyl)piperazin-1-yl)methanone] showed a Kd (STAT3 protein) of under 0.01 µM, an IC50 (Capan-2; [1]) of under 10 nM and an IC50 (MKN45; Homo sapiens, MKN-45) of under 10 nM. For the same compound, the IC50 (Huh7; Homo sapiens, Huh-7) was under 10 nM and the IC50 (HCC827; Homo sapiens) was under 10 nM.

`Cn1c(C(=O)N2CCN(Cc3ccc(OCC(F)(F)F)cc3)CC2)cc2ccc(Oc3cnc(-c4nc(-c5ccccc5F)no4)cn3)cc21` [Example 3, (6-((5-(3-(2-fluorophenyl)-1,2,4-oxadiazol-5-yl)pyrazin-2-yl)oxy)1-methyl-1H-indol-2-yl)(4-(4-(2,2,2-trifluoroethoxy)benzyl)piperazin-1-yl)methanone] showed a Kd (STAT3 protein) of under 0.01 µM, an IC50 (Capan-2; [1]) of under 10 nM and an IC50 (MKN45; Homo sapiens, MKN-45) of under 10 nM. For the same compound, the IC50 (Huh7; Homo sapiens, Huh-7) was under 10 nM and the IC50 (HCC827; Homo sapiens) was under 10 nM.

`Cn1c(C(=O)N2CCN(Cc3ccc(OCC(F)(F)F)cc3)CC2)cc2ccc(Oc3cnc(-c4nc(-c5cccc(F)c5)no4)cn3)cc21` [Example 4, (6-((5-(3-(3-fluorophenyl)-1,2,4-oxadiazol-5-yl)pyrazin-2-yl)oxy)1-methyl-1H-indol-2-yl)(4-(4-(2,2,2-trifluoroethoxy)benzyl)piperazin-1-yl)methanone] showed a Kd (STAT3 protein) of under 0.01 µM, an IC50 (Capan-2; [1]) of under 10 nM and an IC50 (MKN45; Homo sapiens, MKN-45) of under 10 nM. The IC50 (Huh7; Homo sapiens, Huh-7) was under 10 nM and the IC50 (HCC827; Homo sapiens) was under 10 nM.

With `COc1ccc(-c2noc(-c3cnc(Oc4ccc5cc(C(=O)N6CCN(Cc7ccc(OCC(F)(F)F)cc7)CC6)n(C)c5c4)cn3)n2)cc1` [Example 5, (6-((5-(3-(4-methoxyphenyl)-1,2,4-oxadiazol-5-yl)pyrazin-2-yl)oxy)1-methyl-1H-indol-2-yl)(4-(4-(2,2,2-trifluoroethoxy)benzyl)piperazin-1-yl)methanone] the Kd (STAT3 protein) was under 0.01 µM, the IC50 (Capan-2; [1]) was under 10 nM and the IC50 (MKN45; Homo sapiens, MKN-45) was under 10 nM. For the same compound, the IC50 (Huh7; Homo sapiens, Huh-7) was under 10 nM and the IC50 (HCC827; Homo sapiens) was under 10 nM.

`Cn1c(C(=O)N2CCN(Cc3ccc(OCC(F)(F)F)cc3)CC2)cc2ccc(Oc3cnc(-c4nc(-c5ccccc5C(F)(F)F)no4)cn3)cc21` [Example 7, (6-((5-(3-(2-(trifluoromethyl)phenyl)-1,2,4-oxadiazol-5-yl)pyrazin-2-yl)oxy)-1-methyl-1H-indol-2-yl)(4-(4-(2,2,2-trifluoroethoxy)benzyl)piperazin-1-yl)methanone] gave a Kd (STAT3 protein) of under 0.001 µM, an IC50 (Capan-2; [2]) of 0.49 nM and an IC50 (Capan-2; [1]) of under 1 nM. The “improvement of anti-tumor proliferative activity over OPB51602 and IACS-010759” value (Capan-2) was 10 times, the IC50 (MKN45; Homo sapiens, MKN-45) was under 1 nM and the IC50 (Huh7; Homo sapiens, Huh-7) was under 1 nM. For the same compound, the IC50 (HCC827; Homo sapiens) was under 1 nM.

With `Cn1c(C(=O)N2CCN(Cc3ccc(OCC(F)(F)F)cc3)CC2)cc2ccc(Oc3cnc(-c4nc(-c5cccc(C(F)(F)F)c5)no4)cn3)cc21` [Example 8, (6-((5-(3-(3-(trifluoromethyl)phenyl)-1,2,4-oxadiazol-5-yl)pyrazin-2-yl)oxy)-1-methyl-1H-indol-2-yl)(4-(4-(2,2,2-trifluoroethoxy)benzyl)piperazin-1-yl)methanone] the Kd (STAT3 protein) was under 0.001 µM, the IC50 (Capan-2; [2]) was 0.34 nM and the IC50 (Capan-2; [1]) was under 1 nM. The “improvement of anti-tumor proliferative activity over OPB51602 and IACS-010759” value (Capan-2) was 10 times, the IC50 (MKN45; Homo sapiens, MKN-45) was under 1 nM and the IC50 (Huh7; Homo sapiens, Huh-7) was under 1 nM. The IC50 (HCC827; Homo sapiens) was under 1 nM.

In the case of `COc1ccccc1-c1noc(-c2cnc(Oc3ccc4cc(C(=O)N5CCN(Cc6ccc(OCC(F)(F)F)cc6)CC5)n(C)c4c3)cn2)n1` [Example 9, (6-((5-(3-(2-methoxyphenyl)-1,2,4-oxadiazol-5-yl)pyrazin-2-yl)oxy)-1-methyl-1H-indol-2-yl) (4-(4-(2,2,2-trifluoroethoxy)benzyl)piperazin-1-yl)methanone], the Kd (STAT3 protein) is reported as under 0.01 µM, the IC50 (Capan-2; [1]) is reported as under 10 nM and the IC50 (MKN45; Homo sapiens, MKN-45) is reported as under 10 nM. For the same compound, the IC50 (Huh7; Homo sapiens, Huh-7) was under 10 nM and the IC50 (HCC827; Homo sapiens) was under 10 nM.

`COc1cccc(-c2noc(-c3cnc(Oc4ccc5cc(C(=O)N6CCN(Cc7ccc(OCC(F)(F)F)cc7)CC6)n(C)c5c4)cn3)n2)c1` [Example 10, (6-((5-(3-(3-methoxyphenyl)-1,2,4-oxadiazol-5-yl)pyrazin-2-yl)oxy)-1-methyl-1H-indol-2-yl) (4-(4-(2,2,2-trifluoroethoxy)benzyl)piperazin-1-yl)methanone] showed a Kd (STAT3 protein) of under 0.01 µM, an IC50 (Capan-2; [1]) of under 10 nM and an IC50 (MKN45; Homo sapiens, MKN-45) of under 10 nM. It also gave an IC50 (Huh7; Homo sapiens, Huh-7) of under 10 nM and an IC50 (HCC827; Homo sapiens) of under 10 nM.

With `Cn1c(C(=O)N2CCN(Cc3ccc(OCC(F)(F)F)cc3)CC2)cc2ccc(Oc3cnc(-c4nc(-c5ccc(Cl)cc5)no4)cn3)cc21` [Example 11, (6-((5-(3-(4-chlorophenyl)-1,2,4-oxadiazol-5-yl)pyrazin-2-yl)oxy)-1-methyl-1H-indol-2-yl) (4-(4-(2,2,2-trifluoroethoxy)benzyl)piperazin-1-yl)methanone] the Kd (STAT3 protein) was under 0.01 µM, the IC50 (Capan-2; [1]) was under 10 nM and the IC50 (MKN45; Homo sapiens, MKN-45) was under 10 nM. It also gave an IC50 (Huh7; Homo sapiens, Huh-7) of under 10 nM and an IC50 (HCC827; Homo sapiens) of under 10 nM.

Compound `Cn1c(C(=O)N2CCN(Cc3ccc(OCC(F)(F)F)cc3)CC2)cc2ccc(Oc3cnc(-c4nc(-c5ccc(Br)cc5)no4)cn3)cc21` [Example 12, (6-((5-(3-(4-bromophenyl)-1,2,4-oxadiazol-5-yl)pyrazin-2-yl)oxy)-1-methyl-1H-indol-2-yl) (4-(4-(2,2,2-trifluoroethoxy)benzyl)piperazin-1-yl)methanone] has a Kd (STAT3 protein) of under 0.01 µM, an IC50 (Capan-2; [1]) of under 10 nM and an IC50 (MKN45; Homo sapiens, MKN-45) of under 10 nM. The IC50 (Huh7; Homo sapiens, Huh-7) was under 10 nM and the IC50 (HCC827; Homo sapiens) was under 10 nM.

Compound `Cn1c(C(=O)N2CCN(Cc3ccc(OCC(F)(F)F)cc3)CC2)cc2ccc(Oc3cnc(-c4nc(-c5ccc(OC(F)(F)F)cc5)no4)cn3)cc21` [Example 13, (6-((5-(3-(4-(trifluoromethoxy)phenyl)-1,2,4-oxadiazol-5-yl)pyrazin-2-yl)oxy)-1-methyl-1H-indol-2-yl) (4-(4-(2,2,2-trifluoroethoxy)benzyl)piperazin-1-yl)methanone] has a Kd (STAT3 protein) of under 0.01 µM, an IC50 (Capan-2; [1]) of under 10 nM and an IC50 (MKN45; Homo sapiens, MKN-45) of under 10 nM. It also gave an IC50 (Huh7; Homo sapiens, Huh-7) of under 10 nM and an IC50 (HCC827; Homo sapiens) of under 10 nM.

In the case of `O=C(c1cc2ccc(Oc3cnc(-c4nc(-c5ccc(C(F)(F)F)cc5)no4)cn3)cc2[nH]1)N1CCN(Cc2ccc(OCC(F)(F)F)cc2)CC1` [Example 14, (6-((5-(3-(4-(trifluoromethyl)phenyl)-1,2,4-oxadiazol-5-yl)pyrazin-2-yl)oxy)-1H-indol-2-yl) (4-(4-(2,2,2-trifluoroethoxy)benzyl)piperazin-1-yl)methanone], the Kd (STAT3 protein) is reported as under 0.1 µM, the IC50 (Capan-2; [1]) is reported as under 100 nM and the IC50 (MKN45; Homo sapiens, MKN-45) is reported as under 100 nM. For the same compound, the IC50 (Huh7; Homo sapiens, Huh-7) was under 100 nM and the IC50 (HCC827; Homo sapiens) was under 100 nM.

In the case of `CCn1c(C(=O)N2CCN(Cc3ccc(OCC(F)(F)F)cc3)CC2)cc2ccc(Oc3cnc(-c4nc(-c5ccc(C(F)(F)F)cc5)no4)cn3)cc21` [Example 15, (1-ethyl-6-((5-(3-(4-(trifluoromethyl)phenyl)-1,2,4-oxadiazol-5-yl)pyrazin-2-yl)oxy)-1H-indol-2-yl)(4-(4-(2,2,2-trifluoromethoxy)benzyl)piperazin-1-yl)methanone], the Kd (STAT3 protein) is reported as under 0.01 µM, the IC50 (Capan-2; [1]) is reported as under 10 nM and the IC50 (MKN45; Homo sapiens, MKN-45) is reported as under 10 nM. For the same compound, the IC50 (Huh7; Homo sapiens, Huh-7) was under 10 nM and the IC50 (HCC827; Homo sapiens) was under 10 nM.
